In US12172967B1, “3-(4,5-bis(4-bromophenyl)-2-(4-chlorophenyl)-1H-imidazol-1-yl)propanoic acid as an antimicrobial compound” (KING FAISAL UNIVERSITY, priority 2023, dated 2024):

Assays:
Format in all cases: cell-based
Bacillus cereus = experiment: agar plate disc-diffusion, antibacterial, Bacillus cereus; settings: nutrient agar, 37° C., 48 h
Procedure: (§1) The agar plate disc-diffusion method was applied. […] The discs were then placed onto the surface of agar plates (nutrient agar for bacteria and Sabouraud's dextrose agar for fungi) seeded with the test organism. Each plate contained 15 mL of the agar medium, previously seeded with 0.2 mL of the broth culture of each organism pregrown for 18 h. The plates were incubated at 37° C. for 48 h, and 72 h for fungi. The inhibition zones was measured in mm. Discs impregnated with DMSO were used as a control, and its inhibition zone was subtracted from the tested compound actual inhibition zone.

Staphylococcus aureus = experiment: agar plate disc-diffusion, antibacterial, Staphylococcus aureus; settings: nutrient agar, 37° C., 48 h
Procedure: as §1

Pseudomonas aeruginosa = experiment: agar plate disc-diffusion, antibacterial, Pseudomonas aeruginosa; settings: nutrient agar, 37° C., 48 h
Procedure: as §1

Escherichia coli = experiment: agar plate disc-diffusion, antibacterial, Escherichia coli; settings: nutrient agar, 37° C., 48 h
Procedure: as §1

Aspergillus flavus = experiment: agar plate disc-diffusion, antifungal, Aspergillus flavus; settings: Sabouraud's dextrose agar, 37° C., 72 h
Procedure: as §1

[1] = system: Chrysosporium keratinophilum; experiment: agar plate disc-diffusion, antifungal, Chrysosporium keratinophilum; settings: Sabouraud's dextrose agar, 37° C., 72 h
Procedure: as §1

[2] = A = concentration of comp. = 10,000 μL
[3] = B = concentration of comp. = 30,000 μL
[4] = C = concentration of comp. = 50,000 μL

Compound: O=C(O)CCn1c(-c2ccc(Cl)cc2)nc(-c2ccc(Br)cc2)c1-c1ccc(Br)cc1 [V, 3-(4,5-bis(4-bromophenyl)-2-(4-chlorophenyl)-1H-imidazol-1-yl)propanoic acid]
- inhibition zone, Bacillus Cereus, A (Bacillus cereus; [2]): 19 mm
- inhibition zone, Bacillus Cereus, B (Bacillus cereus; [3]): 21 mm
- inhibition zone, Bacillus Cereus, C (Bacillus cereus; [4]): 29 mm
- inhibition zone, Staphylococcus aureus, A (Staphylococcus aureus; [2]): 17 mm
- inhibition zone, Staphylococcus aureus, B (Staphylococcus aureus; [3]): 19 mm
- inhibition zone, Staphylococcus aureus, C (Staphylococcus aureus; [4]): 26 mm
- inhibition zone, Pseudomonas aeruginosa, A (Pseudomonas aeruginosa; [2]): 25 mm
- inhibition zone, Pseudomonas aeruginosa, B (Pseudomonas aeruginosa; [3]): 27 mm
- inhibition zone, Pseudomonas aeruginosa, C (Pseudomonas aeruginosa; [4]): 41 mm
- inhibition zone, Escherichia coli, A (Escherichia coli; [2]): 28 mm
- inhibition zone, Escherichia coli, B (Escherichia coli; [3]): 37 mm
- inhibition zone, Escherichia coli, C (Escherichia coli; [4]): 51 mm
- inhibition zone, Aspergillus flavus, A (Aspergillus flavus; [2]): 23 mm
- inhibition zone, Aspergillus flavus, B (Aspergillus flavus; [3]): 27 mm
- inhibition zone, Aspergillus flavus, C (Aspergillus flavus; [4]): 36 mm
- inhibition zone, Chrysosporium keratinophilum, A [1, 2]: 24 mm
- inhibition zone, Chrysosporium keratinophilum, B [1, 3]: 26 mm
- inhibition zone, Chrysosporium keratinophilum, C [1, 4]: 47 mm
